Measured values reported in US20070254861A1, “Methods for the prevention and/or treatment of peripheral arterial disease” (Astellas Pharma Inc., priority 2006, published 2007).
Where two headings read alike, the source gives them in different places. Numbered stars: 1 amine (or outer) side, 2 acyl side, 3 side chain; on linkers, the order of the positions; unused ones are H or OH. Bridge positions count the residues as written; N and C are the ends. Square brackets hold non-standard residues; d marks the D form. Peptide text beside a SMILES is read from it. Leu(3R-O(AcLeu(3R-OH))) = CC(=O)N[C@H](C(=O)O[C@H](C(C)C)[C@H](N)C(=O)O)[C@H](O)C(C)C; X1 = CO[C@H](C)C(C(=O)[*:2])N(C)[*:1]; dPhLac = O=C(O)[C@H](O)Cc1ccccc1; NMeA = CN[C@@H](C)C(=O)O; NMeDha = C=C(NC)C(=O)O

How the values were obtained:
[1] = tested on: lauric acid-induced peripheral arterial disease model; experiment: Lesion progression in rat peripheral arterial disease model induced by lauric acid; type: in vivo
Method: A rat peripheral arterial disease model was produced by using a lauric acid injection method modified from that of Ashida et al. (Thrombosis research, 18, 55, 1980). Six to 24 animals were used in each group of this experiment. After being fasted overnight, each rat was anesthetized with pentobarbital (60 mg/kg i.p.), and the left femoral artery was freed from the surrounding tissue. The femoral artery was cannulated with a polyethylene catheter for i.a. injection of the lauric acid and the test drug. For the i.v. infusion of PGE1, the jugular vein was cannulated with a polyethylene catheter. To induce peripheral arterial vascular injury, 0.33 ml/kg of lauric acid (7.5 mg/ml in distilled water) was injected into the distal side of the arterial. Compound (I) was administered in a single i.a. bolus injection 15 minutes after the lauric acid injection. PGE1 was administered either intravenously for 30 minutes at 1 μg/kg/minutes starting 5 minutes before the lauric acid injection or intra-arterially for 15 minutes at 0.2 μg/kg/minutes starting 5 minutes after the lauric acid injection. Clopidogrel was administered orally either at 3 and 30 mg/kg 4 hours before the lauric acid injection, or at 30 mg/kg 2 hours after the lauric acid injection. It was also administered orally once a day for 3 days after the lauric acid injection. The treated hindlimb was examined macroscopically on days 3 after the lauric acid injection. The progress of the lesion was assessed using the following 5-point graded scoring system: grade 0: normal appearance, grade 1: the affected region was limited to the nails, grade 2: the affected region was limited to the fingers, grade 3: either the fingers are beginning to fall off or lesions appear on the paw, grade 4: either the paw is beginning to fall off or lesions appear on the leg. The condition of each toe was assessed and scored, and the sum of the scores for the five toes was used as the lesion index. If a lesion developed on the sole of the foot, 5 more points were added.

[2] = tested on: dermal blood flow in rat hindlimbs; experiment: Decreased dermal blood flow after lauric acid injection (laser Doppler); type: in vivo
Method: Three male SD rats (Japan CLEA) were used in each group of this experiment. A laser Doppler blood flow meter (Laser Doppler Perfusion Imager System, Lisca) was used to evaluate the perfusion in the left (ischemic) and right (non-ischemic) rat hindlimbs. Before and during scanning, animals were placed on a heating plate set at 37° C. to minimize variations in temperature. The femoral artery was cannulated with a polyethylene catheter for i.a. injection of the lauric acid and test drug. For i.v. PGE1 infusion, the jugular vein was cannulated with a polyethylene catheter. Either compound (I) (10 μg/kg) or vehicle was administered in an i.a. bolus injection 15 minutes after the lauric acid injection (0.33 ml/kg, 7.5 mg/ml in distilled water). The laser Doppler images were recorded just before and 10 minutes after the lauric acid injection, as well as 10 minutes after the compound (I) (or vehicle) injection. PGE1 was administered by i.v. infusion at a rate of 1 μg/kg/minutes for 30 minutes beginning 5 minutes before the lauric acid injection. The laser Doppler images were recorded just before and 5 minutes after the start of infusion (just before the lauric acid injection), and then again 10 minutes after the lauric acid injection. Either vehicle (0.5% methylcellulose solution) or clopidogrel (30 mg/kg) was orally administered 4 hours before the experiment. For the oral studies, the laser Doppler images were recorded just before and 10 minutes after the lauric acid injection.

[3] = tested on: isolated rat aorta; experiment: Vasorelaxant effect on vasoconstriction in isolated rat aorta; type: cell-based; conditions: for IC50: Rattus norvegicus
Method: Four male SD rats (Japan CLEA) were used in each group of this experiment. Rats were anesthetized with pentobarbital (60 mg/kg i.p.) and euthanized via exsanguination. The aortas were isolated and all adjacent tissue was removed. Rings of aorta, approximately […] length, were suspended in 10-ml organ baths containing Krebs-Henseleit solution (henceforth referred to as Krebs) of the following composition (mM): NaCl, 112.0; KCl, 4.7; KH2PO4, 1.2; MgSO4, 1.2; CaCl2, 2.5; NaHCO3, 25.0; glucose, 11.0. The Krebs was maintained at 37±1° C. and aerated with a gas mixture of 95% O2:5% CO2 (pH 7.4). Experiments were conducted on aortic tissue of two types. For type 1, the endothelium was removed by gently rubbing the internal surface of the vessel. For type 2, care was taken to maintain the integrity of the endothelium. One ring was placed on a hook that was suspended from a force displacement transducer (SB-1T, Nihon Kohden, Tokyo, Japan), 1.0 g tension was applied, and changes in the force of contraction were isometrically measured. Following a 1-h equilibration period, the rings were pretreated with 1 μM phenylephrine. Compound (I) was dissolved in dimethyl sulfoxide (DMSO) and added to the baths (0.1% DMSO, v/v), after which a cumulative compound (I) (1-100 nM) concentration-response curve was constructed for each type of ring. Contractions were caused in aorta rings with endothelium using three different compounds: 10 μM serotonin (5-HT), 30 nM endothelin-1 (ET-1), and 60 mM KCl. The vasorelaxant effect of compound (I) on the contractions caused by each of these compounds was then compared. Various concentrations of compound (I) were added 30 minutes before treatment with each vasoconstrictor. For 5-HT and KCl, the concentration-inhibition rate was measured for each tissue. For ET-1, each tissue was used to measure the inhibition rate in response to a given concentration of compound (I).

[4] = tested on: ADP-induced platelet aggregation; experiment: Ex vivo platelet aggregation inhibition after single administration in the rat femoral artery; conditions: 5 minutes after injection, n=4, mean±SEM
Method: Four male SD rats (Japan CLEA) were used in each group of this experiment. All animals were fasted overnight before the experiment. After being anesthetized with pentobarbital (60 mg/kg i.p.), vehicle (5% ethanol) or compound (I) was injected into either the left femoral artery or the right jugular vein via a catheter. The rats were anesthetized with pentobarbital (60 mg/kg i.p.) before blood sampling. Blood was collected from the vena cava in syringes containing 3.8% sodium citrate at the following time points: 5 minutes after an intra-arterial (i.a.) single bolus injection of compound (I) (1-10 μg/kg). Platelet-rich plasma was obtained by centrifuging the blood at 200×g for 5 minutes at ambient temperature. This residue was further centrifuged at 2,000×g for 10 minutes in order to obtain platelet-poor plasma. Platelet counts were measured with an automatic cell counter (MEK-6258, Nihon Kohden, Tokyo, Japan), and adjusted to 3×10^5/μl with platelet-poor plasma. Platelet aggregation in platelet-rich plasma was measured using an aggregometer (MCM Hema Tracer 212, MC Medical, Tokyo, Japan) to record the increase in light transmission detected through a stirred suspension maintained at 37° C. for 5 minutes. Platelet aggregation was induced in 90 μl of platelet-rich plasma (3×10^5/μl) by adding 10 μl of 50 μM ADP. The inhibitory rate was calculated by dividing the absorbance area for the mixture containing the test sample by the absorbance area obtained for the vehicle-treated group.

[5] = tested on: systemic blood pressure and heart rate; experiment: Blood pressure and heart rate after single bolus injection in femoral artery of rats; type: in vivo, rat
Method: Five male SD rats (Japan CLEA) were used in each group of this experiment. The rats, which were fasted overnight, were anesthetized with urethane (1.4 g/kg i.p.) and then secured on an operating table. The left carotid artery was cannulated with polyethylene catheters in order to monitor systemic blood pressure and heart rate. The left femoral artery was likewise cannulated with polyethylene catheters for the injection of compound (I). Systemic blood pressure was measured with a pressure transducer (AP-200T, Nihon Kohden) and heart rate was measured with a tachometer (AT-600G, Nihon Kohden) that was triggered by the arterial pulse wave. Changes in these parameters were continuously monitored by a thermal recorder (WT-685G, Nihon Kohden). Compound (I) was administered in an i.a. bolus injection at the rate of 5 mL/kg. The dosage (10 to 100 μg/kg) was increased every 10 to 20 minutes. The inhibitory rate was calculated by dividing the heart rate and mean blood pressure levels obtained after the compound (I) injection by them obtained after the vehicle injection.

[6] = Pharmacokinetic studies using rats, i.v. bolus injection; type: in vivo; conditions: rat, iv, plasma, after i.v. bolus injection
[7] = tested on: Gq/11; conditions: Journal of Biological Chemistry, 279, 47438, 2004; cited from earlier work
[8] = tested on: ADP-induced platelet aggregation; conditions: JP-2003-210190; Journal of Antibiotics, 56, 358, 2003; cited from earlier work

CCCCC[C@H](O)/C=C/[C@H]1[C@H](O)CC(=O)[C@@H]1CCCCCCC(=O)O [PGE1, prostaglandin E1]
Inhibition of lesion progression ([1]; i.a. infusion at 0.2 μg/kg/minutes for 15 minutes starting 5 minutes after lauric acid): significantly inhibited lesion progression
Inhibition of lesion progression ([1]; i.v. infusion at 1 μg/kg/minutes for 30 minutes starting 5 minutes before lauric acid): significantly inhibited lesion progression
Effect on lauric acid-induced reduction in dermal blood flow ([2]; continuous i.v. infusion 1 μg/kg/minutes, after lauric acid injection): no improvement in the blood flow
Dermal blood flow in both hindlimbs before lauric acid ([2]; i.v. infusion 1 μg/kg/minutes, 5 minutes after the start of the infusion): marked increase in dermal blood flow

COC(=O)[C@H](c1ccccc1Cl)N1CCc2sccc2C1 [clopidogrel, (+)-(S)-methyl 2-(2-chlorophenyl)-2-(6,7-dihydrothieno[3,2-c]pyridin-5(4H)-yl)acetate]
Inhibition of lesion progression ([1]; oral, administered 4 hours before the lauric acid injection): efficacy of clopidogrel was detected
Inhibition of lesion progression ([1]; oral, administered after the lauric acid injection): no effect was observed
Effect on lauric acid-induced reduction in dermal blood flow ([2]; 30 mg/kg oral 4 hours before the experiment): improved the blood flow only slightly

C=C1C(=O)N[C@@H](C)C(=O)N(C)[C@@H](C)C(=O)N[C@@H]([C@H](OC(=O)[C@@H](NC(C)=O)[C@H](O)C(C)C)C(C)C)C(=O)N(C)C([C@@H](C)OC)C(=O)O[C@H](C)[C@H](NC(C)=O)C(=O)O[C@H](Cc2ccccc2)C(=O)N1C (stereo partly drawn) [compound (I)] (Ac-T[dPhLac][NMeDha]A[NMeA][Leu(3R-O(AcLeu(3R-OH)))][X1]; ester 1-C)
Effect on KCl-induced contractions ([3]; 60 mM KCl, even at a concentration of 1 μM): ineffective
IC50 ([3]; contraction induced by 30 nM ET-1, aorta with endothelium, n=4, mean, read-out: IC50 of inhibition of vascular contraction): 18 nM
IC50 ([3]; contraction induced by 10 μM 5-HT, aorta with endothelium, n=4, mean±SEM, read-out: IC50 of inhibition of vascular contraction): 8.6 ± 1 nM
IC50 ([3]; span over the three vasoconstrictors, read-out: IC50 values for vasoconstrictions induced by phenylephrine, 5-HT and ET-1): 8.6 to 18 nM
IC50 ([3]; with endothelium, pre-contracted with 1 μM phenylephrine, n=4, mean±SEM, read-out: IC50 of relaxation of isolated rat aorta): 16 ± 2.3 nM
IC50 ([3]; without endothelium, pre-contracted with 1 μM phenylephrine, n=4, mean±SEM, read-out: IC50 of relaxation of isolated rat aorta): 11 nM
Inhibitory rate of ADP-induced platelet aggregation ([4]; 1 μg/kg i.a. bolus): −5.6±5.4%
Inhibitory rate of ADP-induced platelet aggregation ([4]; 3 μg/kg i.a. bolus): 38±5.1%
Inhibitory rate of ADP-induced platelet aggregation ([4]; 10 μg/kg i.a. bolus): 71±7.0%
Dose inhibiting lesion progression with significance ([1]; single i.a. bolus 15 minutes after the lauric acid injection, day 3): ≥ 0.003 mg/kg
Effect on lauric acid-induced reduction in dermal blood flow ([2]; 10 μg/kg i.a. bolus 15 minutes after the lauric acid injection): improved the lauric acid-induced reduction in dermal blood flow somewhat, but did not correct it completely
Relative mean blood pressure reduction ([5]; 30 μg/kg i.a. bolus): 25±5.2%
Relative mean blood pressure reduction ([5]; 100 μg/kg i.a. bolus): 50±2.1%
Hypotensive dose relative to dose with significant preventive effect (Example 4) ([5]; i.a. administration): 10 times
Significant hypotensive dose ([5]; i.a. bolus, Example 6): 0.03 mg/kg
Change of the heart rate ([5]; up to 100 μg/kg i.a.): no significant change
half-life [6]: 3.7 min
Gq/11 inhibition [7]: specific Gq/11 inhibitor
Inhibition of ADP-induced platelet aggregation in human [8]: inhibits ADP-induced platelet aggregation in human
